The numbers were not newly measured in patent publication US5629294A, “Compositions and methods for preventing adhesion formation” (University of Southern California, priority 1994, dated 1997), which cites them from elsewhere.

Series [1] deals with platelet aggregation in response to ADP and collagen.
Series [2] concerns platelet accumulation associated with the administration of a collagen substrate and ADP. The note with it: baboon model, RGDV given at 0.35, 0.68 or 1.31 μmol/min.

As to RGDV, in series [1], the “concentration necessary to effectively abolish platelet aggregation” value was 100 µM. For the same substance, the platelet accumulation result in series [2] is reported as “dose-dependent reduction in platelet accumulation”.
